According to PMC3823830 (Anesthesiology, 2013):
Entries after “also recorded” stand apart in the source; their conditions may differ. Read-outs that look alike come from different tables or passages of the source.

Tests used:
P-gp [1] = conditions: rats; cited from earlier work
P-gp [2] = conditions: bovine brain capillary cell P-gp-mediated transport; cited from earlier work
[3] = Compartmental pharmacokinetic modeling of morphine and morphine glucuronides; format: in vivo, human; conditions: for Delay time (appearance of the metabolite in plasma): set at 0.01 h for M-3-G when not estimable; for VSS of morphine glucuronide: fixed at 0.2 × body mass (kg); for Vd / clearance: both, human, plasma, intravenous; for VC (central volume): constrained to be the same in both sessions
[4] = cited from earlier work
clinical = conditions: both, human, plasma, iv, 0.1 mg/kg
healthy volunteers [5] = conditions: morphine 0.1 mg/kg
healthy volunteers [6] = conditions: average; cyclosporine did not change this delay
healthy volunteers [7] = assay: Pharmacokinetic-pharmacodynamic effect-site modeling of miosis; conditions: for Predicted maximum biophase concentration: model-predicted
P-gp [8] = conditions: humans; cited from earlier work
P-gp [9] = conditions: mouse, in vivo; cited from earlier work
human P-gp = conditions: cited from earlier work
P-gp [10] = conditions: cited from earlier work
P-gp [11] = conditions: P-gp-overexpressing cells; cited from earlier work
[12] = tested on: mdr1a (murine MDR1 homologue); conditions: cited from earlier work
[13] = with cyclosporine, median (range)

COc1cc2c(cc1OC)CN(CCc1ccc(NC(=O)c3cccc4c(=O)c5cccc(OC)c5[nH]c34)cc1)CC2 [GF120918]
Increase in morphine antinociception (P-gp [1]): approximately 3 fold
Effect on basolateral to apical flux of morphine (P-gp [2]): abolished

CN1CC[C@]23c4c5ccc(O[C@@H]6O[C@H](C(=O)O)[C@@H](O)[C@H](O)[C@H]6O)c4O[C@H]2[C@@H](O)C=C[C@H]3[C@H]1C5 [Morphine-3-glucuronide, morphine-3-glucuronide]
ClE (glucuronide elimination clearance) ([3]; control, median (range)): 8.4 (5.3 to 12.4) L/h
Fraction eliminated (percent of morphine dose eliminated as the glucuronide metabolite) ([3]; control, median (range)): approximately 40%
Fraction eliminated (percent of morphine dose eliminated as the glucuronide metabolite) ([3]; control, median (range), […]): 40.5 (27 to 52) %
Delay time (appearance of the metabolite in plasma) ([3]; control, median (range)): 0.010 (0.003 to 0.09) h
CLEM-3-G (elimination clearance represented by metabolism to morphine-glucuronide) ([3]; control, CLE × percent eliminated as glucuronide, mean ± SD): 39.0 ± 14.8 L/h
VSS of morphine glucuronide ([3]; control, mean ± SD): 15.0 ± 2.5 L
Decrease in median glucuronide elimination clearance by cyclosporine ([3]; cyclosporine vs control): more than 10%
ClE (glucuronide elimination clearance) [3, 13]: 7.5 (3.7 to 14.0) ^@ L/h
Fraction eliminated (percent of morphine dose eliminated as the glucuronide metabolite) [3, 13]: approximately 40%
Fraction eliminated (percent of morphine dose eliminated as the glucuronide metabolite) ([3]; with cyclosporine, median (range), […]): 43.4 (21 to 73) %
Delay time (appearance of the metabolite in plasma) [3, 13]: 0.022 (0.003 to 0.13) ^& h
CLEM-3-G (elimination clearance represented by metabolism to morphine-glucuronide) ([3]; with cyclosporine, CLE × percent eliminated as glucuronide, mean ± SD): 35.3 ± 13.4 L/h
VSS of morphine glucuronide ([3]; with cyclosporine, mean ± SD): 15.0 ± 2.5 L
Clinical effect [4]: no clinical effect
Time of peak plasma concentration after the end of the morphine infusion (control): 0.2 h
Plasma AUC ratio (morphine glucuronide/morphine) (control, mean ± SD): 5.0 ± 1.2
Plasma Tmax (control, relative to start of morphine infusion, mean ± SD): 1.2 ± 0.2 h
Delay of time to peak plasma concentration by cyclosporine (cyclosporine vs control): 0.4 h
Plasma AUC ratio (morphine glucuronide/morphine) (with cyclosporine, mean ± SD): 5.3 ± 1.1

CN1CC[C@]23c4c5ccc(O)c4O[C@H]2[C@@H](O[C@@H]2O[C@H](C(=O)O)[C@@H](O)[C@H](O)[C@H]2O)C=C[C@H]3[C@H]1C5 [Morphine-6-glucuronide, morphine-6-glucuronide]
Vd [3]: 15 ± 2.5 L
Vd ([3]; 0.1 mg/kg): 15 ± 2.5 L
clearance ([3]; 0.1 mg/kg, CLEM-6-G (elimination clearance represented by metabolism to morphine-glucuronide), control, CLE × percent eliminated as glucuronide, mean ± SD): 138 mL/min
clearance ([3]; 0.1 mg/kg, ClE (glucuronide elimination clearance), control, median (range)): 160 mL/min
clearance ([3]; CLEM-6-G (elimination clearance represented by metabolism to morphine-glucuronide), with cyclosporine, CLE × percent eliminated as glucuronide, mean ± SD): 103 mL/min
Fraction eliminated (percent of morphine dose eliminated as the glucuronide metabolite) ([3]; control, median (range), listed as Morphine-6- glucuronide): 8.1 (4.9 to 12.5) %
Fraction eliminated (percent of morphine dose eliminated as the glucuronide metabolite) ([3]; control, median (range), listed as morphine-6-glucuronide): 8.1%
Delay time (appearance of the metabolite in plasma) ([3]; control, median (range)): 0.11 (0.04 to 0.34) h
Decrease in median glucuronide elimination clearance by cyclosporine ([3]; cyclosporine vs control): ~25%
Fraction eliminated (percent of morphine dose eliminated as the glucuronide metabolite) ([3]; with cyclosporine, median (range), listed as Morphine-6- glucuronide): 7.4 (3.3 to 16.6) ^& %
Fraction eliminated (percent of morphine dose eliminated as the glucuronide metabolite) ([3]; with cyclosporine, median (range), listed as morphine-6-glucuronide): 7.4%
Delay time (appearance of the metabolite in plasma) [3, 13]: 0.18 (0.06 to 0.37) h
Plasma AUC ratio (morphine glucuronide/morphine) (control, mean ± SD): 0.88 ± 0.20
Plasma AUC ratio (morphine glucuronide/morphine) (with cyclosporine, mean ± SD): 0.85 ± 0.20
AUC(0-inf) (clinical): 117 ± 32 ng·h/mL
Cmax (clinical): 24.9 ± 5.2 ng/mL
half-life (clinical): 2.8 ± 1.2 h

CN1CC[C@]23c4c5ccc(O)c4O[C@H]2[C@@H](O)C=C[C@H]3[C@H]1C5 [Morphine]
Analgesic effect (thermal stimulus) (healthy volunteers [5]): negligible analgesic effects
Time of maximum miosis after the end of the morphine infusion (healthy volunteers [6]): 1.6 h
VC (central volume) ([3]; control, mean ± SD): 21.5 ± 4.7 L
Average peripheral volume (VP) during cyclosporine treatment less than control ([3]; cyclosporine vs control, not statistically significant): approximately 11%
VC (central volume) ([3]; with cyclosporine, mean ± SD): 21.5 ± 4.7 L
Predicted maximum biophase concentration (healthy volunteers [7]; after cyclosporine): 41 ± 13 ng/mL
Maximum calculated effect site morphine concentration (healthy volunteers [7]; control (abstract)): 7.6 ± 2.9 ng/mL
Predicted maximum biophase concentration (healthy volunteers [7]; control): 27 ± 11 ng/mL
Maximum calculated effect site morphine concentration (healthy volunteers [7]; with cyclosporine (abstract)): 11.5 ± 3.7 ng/mL

C/C=C/C[C@@H](C)C(=O)[C@H]1C(=O)N[C@@H](C(C)C)C(=O)N(C)CC(=O)N(C)[C@@H](CC(C)C)C(=O)N[C@@H](C(C)C)C(=O)N(C)[C@@H](CC(C)C)C(=O)N[C@@H](C)C(=O)N[C@H](C)C(=O)N(C)[C@@H](CC(C)C)C(=O)N(C)[C@@H](CC(C)C)C(=O)N(C)[C@@H](C(C)C)C(=O)N1C [PSC833]
Effect on morphine-related respiratory depression (and drowsiness) (P-gp [8]): did not significantly change; also recorded: no effect

C=C[C@H]1C[N@@]2CC[C@H]1C[C@@H]2[C@@H](O)c1ccnc2ccc(OC)cc12 [Quinidine]
IC50 (P-gp [9]): 36 µM
IC50 (human P-gp): 34 µM
IC50 (P-gp [10]): 3 µM

CN(C)C(=O)C(CCN1CCC(O)(c2ccc(Cl)cc2)CC1)(c1ccccc1)c1ccccc1 [loperamide]
Efflux ratio (P-gp [11]): > 20%
Transport ratio in mdr1-knockout mice vs control [12]: 10.4
